Assay results taken from EP0545103A1, “Insecticidal, acaricidal and molluscicidal 1-(substituted) thioalkylpyrroles” (priority 1991, dated 1993).

Key:
Venturia inaequalis = assay: In vivo fungicidal activity, Apple Scab (AS); conditions: rate 400 ppm, host plants sprayed then inoculated, rating, averaged
Method: (§1) Test compounds are dissolved in acetone and diluted with deionized water containing about 0.05% TWEEN 20®, a polyoxyethylene sorbitan monolaurate surfactant manufactured by Atlas Chemical Industries, to give a concentration of 400 ppm. Subsequent dilutions are made with an 0.05% aqueous solution of TWEEN 20®.
(§2) Host plants are sprayed with test solution, dried and inoculated with fungi. When disease symptom development is optimal, the plants are rated for disease control according to the rating scale shown below. Each test contains inoculated treated plants, inoculated untreated plants and a reference standard.
(§3) When more than one test is run, the data are averaged.

Plasmopara viticola = assay: In vivo fungicidal activity, Grape Downy Mildew (GDM); conditions: rate 400 ppm, rating, averaged
Method: as §1, §2, §3

Cercospora beticola = assay: In vivo fungicidal activity, Sugarbeet Cercospora (SBC); conditions: rating, averaged
Method: as §1, §2, §3

[1] = test system: Puccinia recondita, tritici; assay: In vivo fungicidal activity, Wheat Leaf Rust (WLR); conditions: rate 400 ppm, rating, averaged
Method: as §1, §2, §3

[2] = test system: Erysiphe graminis, tritici; assay: In vivo fungicidal activity, Wheat Powdery Mildew (WPM); conditions: rate 400 ppm, rating, averaged
Method: as §1, §2, §3

Pythium ultimum = assay: In vitro fungicidal activity, mycelial growth inhibition on agar (Pyth); format: cell-based; conditions: Globisporangium ultimum, 48 h, two days
Method: (§4) Test compounds are dissolved in acetone, diluted with sterile, deionized water and mixed with a partially cooled, autoclaved, chemically defined agar medium. This mixture is poured into several 100mm x 15mm sterile plastic plates and allowed to solidify. The surface of each plate is inoculated with a single disc of mycelium and agar cut with an 8mm diameter cork borer from actively growing cultures of assay fungi on a chemically defined agar medium. The plates are incubated at room temperature. Growth inhibition is determined when the mycelial growth on unamended control media has reached the edge of the petri plates. The time interval varies depending on the growth rate of the fungus; two days for Pythium ultimum (pyth) and Rhizoctonia solani (Rhiz) , five days for Botrytis cinerea (Betry) and 7-10 days for Pseudocercosporella herpotrichoides (Pseudo). Each colony diameter is measured and compared with the untreated control and the percent inhibition is calculated as follows: [formula] Each test includes a solvent blank consisting of the formulation without a test compound in addition to the untreated control.
(§5) Assay fungi include the plant pathogens, Pythium ultimum (Pyth) and Rhizoctonia solani (Rhiz).
(§6) When more than one test is run the data are averaged.

Rhizoctonia solani = assay: In vitro fungicidal activity, mycelial growth inhibition on agar (Rhiz); format: cell-based; conditions: 48 h, two days
Method: as §4, §5, §6

[3] = test system: Heliothis virescens, 3rd instar tobacco budworm; assay: Tobacco budworm 3rd instar test, dipped cotton cotyledons; format: in vivo; design: key: 0: no effect; 10-25% kill; 26-35% kill; 36-45% kill; 46-55% kill; 56-65% kill; 66-75% kill; 76-85% kill; 86-99% kill; 9: 100% kill; conditions: mortality rating after 3 days
Procedure, shortened: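 Cotton cotyledons dipped in compound solution (10,000 ppm stock in 35% aqueous acetone, water dilutions), dried and quartered. One caterpillar per section, ten sections per treatment. After 3 days, mortality and feeding-damage reduction scored on a rating scale.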

[4] = test system: Spodoptera eridania, 3rd instar larvae, southern armyworm; assay: Southern armyworm 3rd instar test, dipped limabean leaf; format: in vivo; design: key: 0: no effect; 10-25% kill; 26-35% kill; 36-45% kill; 46-55% kill; 56-65% kill; 66-75% kill; 76-85% kill; 86-99% kill; 9: 100% kill; conditions: for ARMYWORM Day 3: rating at 3 days; for ARMYWORM Day 5: rating at 5 days
Procedure, shortened: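 Compound dissolved in 35% acetone/water at 10,000 ppm stock, diluted with water. Sieva limabean leaves dipped 3 s, dried, and exposed to ten 3rd instar larvae on damp filter paper. Mortality, reduced feeding and molting interference scored at 3 and 5 days on a rating scale.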

[5] = test system: Spodoptera eridania, 3rd instar larvae, southern armyworm; assay: Southern armyworm 7-day residual test; format: in vivo; design: key: 0: no effect; 10-25% kill; 26-35% kill; 36-45% kill; 46-55% kill; 56-65% kill; 66-75% kill; 76-85% kill; 86-99% kill; 9: 100% kill; conditions: R designates Residual: 7-day residual foliage, concentration not given; for ARMYWORM Day 3 R: rating at 3 days; for ARMYWORM Day 5 R: rating at 5 days
Procedure, shortened: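 Compound was dissolved in 35% aqueous acetone (10,000 ppm stock) and diluted with water before treating lima bean leaves. The leaves were aged 7 days under high-intensity greenhouse lamps (14 h day). Third-instar Spodoptera eridania larvae were then assayed on the foliage and rated on a scale.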

[6] = test system: Empoasca abrupta, adult, western potato leafhopper; assay: Western potato leafhopper contact test, dipped limabean leaf; format: in vivo; design: key: 0: no effect; 10-25% kill; 26-35% kill; 36-45% kill; 46-55% kill; 56-65% kill; 66-75% kill; 76-85% kill; 86-99% kill; 9: 100% kill
Procedure, shortened: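 Sieva limabean leaf dipped 3 s in compound solution (diluted in water from 10,000 ppm stock in 35% acetone), dried, and infested with about 10 adult leafhoppers on moist filter paper. Mortality counted after 2 days and scored on a rating scale.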

[7] = 10 ppm, contact, rating scale 0-9
[8] = 100 ppm, contact, rating scale 0-9

| SMILES | TOBACCO BUDWORM 3rd Instar ([3]; 100 ppm) | TOBACCO BUDWORM 3rd Instar ([3]; 1000 ppm) | ARMYWORM Day 3 ([4]; 100 ppm) | ARMYWORM Day 5 ([4]; 100 ppm) | ARMYWORM Day 3 ([4]; 1000 ppm) | ARMYWORM Day 5 ([4]; 1000 ppm) | ARMYWORM Day 3 R [5] | ARMYWORM Day 5 R [5] | TOBACCO BUDWORM 3rd Instar ([3]; 10 ppm) | ARMYWORM Day 3 ([4]; 10 ppm) | ARMYWORM Day 5 ([4]; 10 ppm) | LEAFHOPPER Contact [6, 7] | LEAFHOPPER Contact [6, 8] | other results |
| --- | --- | --- | --- | --- | --- | --- | --- | --- | --- | --- | --- | --- | --- | --- |
| N#Cc1c(Br)c(Br)n(CSc2ccccc2)c1-c1ccc(C(F)(F)F)cc1 [Example 45, 4,5-dibromo-1-[(phenylthio)methyl]-2-(alpha, alpha,alpha-trifluoro-p-tolyl)pyrrole-3-carbonitrile] | 0 | 0 | 0 | 0 | 8 (86-99% kill) | 8 (86-99% kill) | 0 | 0 | – | – | – | – | – | Disease Control AS (Venturia inaequalis): 0 (0); Disease Control GDM (Plasmopara viticola): 0 (0); Disease Control SBC (Cercospora beticola; rate 25 ppm): 6.0; Disease Control SBC (Cercospora beticola; rate 100 ppm): 7.0; Disease Control SBC (Cercospora beticola; rate 400 ppm): 7.5; Disease Control WLR [1]: 6.0; Disease Control WPM [2]: 1.0; inhibition at 1 ppm (Pythium ultimum; rate 1 ppm in agar): 0%; inhibition at 10 ppm (Pythium ultimum; rate 10 ppm in agar): 7%; inhibition at 25 ppm (Pythium ultimum; rate 25 ppm in agar): 4.5%; inhibition at 1 ppm (Rhizoctonia solani; rate 1 ppm in agar): 0%; inhibition at 10 ppm (Rhizoctonia solani; rate 10 ppm in agar): 3.5%; inhibition at 25 ppm (Rhizoctonia solani; rate 25 ppm in agar): 2% |
| N#Cc1c(Cl)c(C(F)(F)F)n(CSC2=NCCN2)c1-c1ccc(Cl)cc1 [Example 4] | 9 (100% kill) | 9 (100% kill) | 9 (100% kill) | 9 (100% kill) | 9 (100% kill) | 9 (100% kill) | 9 (100% kill) | 9 (100% kill) | 9 (100% kill) | 9 (100% kill) | 9 (100% kill) | – | – | LEAFHOPPER Contact ([6]; 10 ppm, mortality rating after 2 days): 0; LEAFHOPPER Contact ([6]; 100 ppm, mortality rating after 2 days): 9 (100% kill) |
| N#Cc1c(Br)c(C(F)(F)F)n(CSC2=NCCS2)c1-c1ccc(Cl)cc1 [Example 16] | 9 (100% kill) | 9 (100% kill) | 9 (100% kill) | 9 (100% kill) | 9 (100% kill) | 9 (100% kill) | 9 (100% kill) | 9 (100% kill) | 9 (100% kill) | 9 (100% kill) | 9 (100% kill) | 9 (100% kill) | 9 (100% kill) | – |
| N#Cc1c(Br)c(Br)n(CSC2=NCCCN2)c1Br [Example 13] | – | 0 | 0 | – | 9 (100% kill) | – | 0 | 7 (76-85% kill) | – | – | – | – | 0 | – |
| CN=C(NC)SCn1c(Cl)c(Cl)c(C#N)c1-c1ccc(Cl)c(Cl)c1 [Example 15] | – | – | 9 (100% kill) | 9 (100% kill) | 9 (100% kill) | 9 (100% kill) | 9 (100% kill) | 9 (100% kill) | 0 | 9 (100% kill) | 9 (100% kill) | 0 | 6 (66-75% kill) | – |
